Measurements reported in ChEMBL document CHEMBL6177988, “Design, synthesis, biophysical and biological evaluation of original condensed pyrrolopyrimidine and pyrrolopyridine ligands as anti-SARS-CoV-2 agents targeting G4” (Eur J Med Chem, 2025).

Key:
Quadruplex DNA [1] = assay: Thermal stabilization of human telomeric G-quadruplex F21T DNA (FAM-5'-GGGTTAGGGTTAGGGTTAGGG-3'-TAMRA) assessed as change in half-width of melting temperature at 2 uM by FRET-melting assay; assay type: nucleic-acid assay
[2] = tested on: Non-structural protein 3/TRF2 G-quadruplex ribonucleic acid; assay: Inhibition of N-terminal His-tagged SARS-CoV-2 Nsp3 SUD-NM domain (413-676 residues)/SARS-CoV-2 TRF2 G-quadruplex RNA incubated for 2 hrs by HTRF assay; assay type: protein assay, Severe acute respiratory syndrome coronavirus 2
[3] = Cytotoxicity against human Caco-2 cells harboring ACE2-CI33 assessed as cell viability by celltiter glo assay; assay type: toxicity, cell-based
Quadruplex DNA [4] = assay: Thermal stabilization of human telomeric G-quadruplex F21T DNA (FAM-5'-GGGTTAGGGTTAGGGTTAGGG-3'-TAMRA) assessed as change in half-width of melting temperature at 1 uM by FRET-melting assay; assay type: nucleic-acid assay
[5] = Cytotoxicity against human A549 cells harboring ACE2-CI33 assessed as cell viability by celltiter glo assay; assay type: toxicity, cell-based
Quadruplex DNA [6] = assay: Thermal stabilization of human telomeric G-quadruplex F21T DNA (FAM-5'-GGGTTAGGGTTAGGGTTAGGG-3'-TAMRA) assessed as change in half-width of melting temperature at 0.5 uM by FRET-melting assay; assay type: nucleic-acid assay

Structure (SMILES) | deltaTm1/2 (Quadruplex DNA [1]) [°C] | IC50 [2] [nM] | CC50 at 75 h [3] [nM] | deltaTm1/2 (Quadruplex DNA [4]) [°C] | CC50 [5] [nM] | deltaTm1/2 (Quadruplex DNA [6]) [°C]
CN(C)CCCCNCc1ccc(-c2nc(-c3ccc(CNCCCCN(C)C)cc3)c3ncn(-c4ccccc4)c3n2)cc1 | 31.7 | 79 | – | – | – | –
CN(C)CCCCNCc1ccc(-c2nc(-c3ccc(CNCCCCN(C)C)cc3)c3c(ccn3-c3ccccc3)n2)cc1 | 18.6 | 90 | – | – | – | –
O=C(O[C@@H]1Cc2c(O)cc(O)cc2O[C@@H]1c1cc(O)c(=O)c2c(O)c(O)cc([C@H]3Oc4cc(O)cc(O)c4C[C@H]3OC(=O)c3cc(O)c(O)c(O)c3)c2c1)c1cc(O)c(O)c(O)c1 | 0.9 | – | – | – | – | –
O=c1c(O)cc([C@H]2Oc3cc(O)cc(O)c3C[C@H]2O)cc2c([C@H]3Oc4cc(O)cc(O)c4C[C@H]3O)cc(O)c(O)c12 [THEAFLAVIN] | – | > 500 | – | – | – | –
CN(C)CCCNCc1ccc(-c2nc(-c3ccc(CNCCCN(C)C)cc3)c3ccn(-c4ccc(CNCCCN(C)C)cc4)c3n2)cc1 | 34.9 | 50 | ≥ 7200 | – | – | –
CN(C)CCCNCc1ccc(-c2nc(-c3ccc(CNCCCN(C)C)cc3)c3ccn(-c4ccccc4)c3n2)cc1 | 25.9 | 137 | – | – | – | –
CN(C)CCCCNCc1ccc(-c2nc(-c3ccc(CNCCCCN(C)C)cc3)c3ccn(-c4ccc(CNCCCCN(C)C)cc4)c3n2)cc1 | > 36 | 48 | – | 23.8 | – | –
CN1CCN(CCCCNCc2ccc(-c3ccc4ccc5ccc(-c6ccc(CNCCCCN7CCN(C)CC7)cc6)nc5c4n3)cc2)CC1 | 24.1 | 31.4 | – | – | > 10000 | –
CN(C)CCCCNCc1ccc(-c2cc(-c3ccc(CNCCCCN(C)C)cc3)c3ccn(-c4ccccc4)c3n2)cc1 | 26.3 | 223 | – | – | – | –
CN(C)CCCCNCc1ccc(-c2cc3c(ccn3-c3ccccc3)c(-c3ccc(CNCCCCN(C)C)cc3)n2)cc1 | 21 | 87 | – | – | – | –
CN(C)CCCCNCc1ccc(-c2cn(-c3ccccc3)c3ncnc(-c4ccc(CNCCCCN(C)C)cc4)c23)cc1 | 13.1 | > 500 | – | – | – | –
C[n+]1cc(NC(=O)c2ccc3ccc4ccc(C(=O)Nc5cc6ccccc6[n+](C)c5)nc4c3n2)cc2ccccc21 | – | – | – | – | – | 21.2
CN(C)CCCNCc1ccc(-c2cn(-c3ccc(CNCCCN(C)C)cc3)c3ncnc(-c4ccc(CNCCCN(C)C)cc4)c23)cc1 | 20.3 | 46 | – | – | – | –
CN(C)CCCCCNCc1ccc(-c2nc(-c3ccc(CNCCCCCN(C)C)cc3)c3ncn(-c4ccccc4)c3n2)cc1 | 34 | 103 | – | – | – | –
CN(C)CCCCNCc1ccc(-c2ccc3ccc4ccc(-c5ccc(CNCCCCN(C)C)cc5)nc4c3n2)cc1 | 18.5 | 31.2 | – | – | > 10000 | –
CN(C)CCCCCNCc1ccc(-c2cn(-c3ccccc3)c3ncnc(-c4ccc(CNCCCCCN(C)C)cc4)c23)cc1 | 14.8 | 140 | – | – | – | –
CN1CCN(CCCCNCc2ccc(-c3nc(-c4ccc(CNCCCCN5CCN(C)CC5)cc4)c4ncn(-c5ccccc5)c4n3)cc2)CC1 | 30.2 | 115 | – | – | – | –
CCN(CC)CCCCNCc1ccc(-c2cc3c(ccn3-c3ccccc3)c(-c3ccc(CNCCCCN(CC)CC)cc3)n2)cc1 | 28.7 | 446 | – | – | – | –
CN(C)CCCCCNCc1ccc(-c2cc(-c3ccc(CNCCCCCN(C)C)cc3)c3ccn(-c4ccccc4)c3c2)cc1 | 30.9 | 90 | 2320 | – | 3010 | –
CN1CCN(CCCCNCc2ccc(-c3cc(-c4ccc(CNCCCCN5CCN(C)CC5)cc4)c4ccn(-c5ccccc5)c4c3)cc2)CC1 | 20.4 | 74 | – | – | – | –
CN(C)CCCCCNCc1ccc(-c2cc3c(ccn3-c3ccccc3)c(-c3ccc(CNCCCCCN(C)C)cc3)n2)cc1 | 22.6 | > 200 | – | – | – | –
CC(C)CCCCNCc1ccc(-c2cc(-c3ccc(CNCCCCC(C)C)cc3)c3ccn(-c4ccccc4)c3c2)cc1 | 4 | > 500 | – | – | – | –
CN(C)CCCCNCc1ccc(-c2nc(-c3ccccc3)c3ccn(-c4ccc(CNCCCCN(C)C)cc4)c3n2)cc1 | 26.4 | 97 | – | – | – | –
CN(C)CCCCNCc1ccc(-c2cc(-c3ccc(CNCCCCN(C)C)cc3)c3ccn(-c4ccccc4)c3c2)cc1 | 23.7 | 75 | 2140 | – | 2830 | –
